System: 287954-098-R-J1 tumor spheroid viability
Experiment: Anticancer human tumor 287954-098-R-J1 patient-derived Ewing sarcoma cell line growth inhibition
Settings: spheroids with HUVEC and MSC; for IC50: curve of first compound; for viability, T/C: stronger effect = lower value
From the text: Multicellular complex tumor spheroid response to DNA repair inhibitors in combination with DNA-damaging drugs
This study explores the anticancer activities of DNA-damaging drugs and inhibitors of DNA damage repair, both as single agents and in combinations. Complex tumor spheroids comprised of malignant cells, endothelial cells and mesenchymal stem cells served as an in vitro model for human solid tumors. This model system incorporates physiologically relevant features and patient-derived or established malignant cell lines with clinically relevant genetic alterations from many tumor types. Twenty-six patient-derived or established malignant cell lines were evaluated representing sarcoma, melanoma, small cell lung cancer (SCLC), non-small cell lung cancer (NSCLC), as well as bladder, ovarian and pancreatic cancers. The concentration ranges selected for each drug and investigational agent were based upon clinically achievable concentrations if the clinical Cmax of the agent was known.
Compounds. The drugs and compounds olaparib (NSC753686), talazoparib (NSC767125), berzosertib (NSC777718), elimusertib (NSC800525), nedisertib (NSC802822), VX-984 (NSC792969), AZD-1390 (NSC803789), temozolomide (NSC362856), topotecan (NSC609699), trabectedin (NSC813783), staurosporine (NSC755774), and gemcitabine (NSC613327) were obtained from the National Cancer Institute (NCI) Developmental Therapeutics Program Chemical Repository. The FDA-approved anticancer drug set is available from the Developmental Therapeutics Program at https://dtp.cancer.gov/organization/dscb/obtaining/available_plates.htm. […] The stock solutions were prepared in dimethyl sulfoxide (DMSO, Sigma-Aldrich, St. Louis, MO, cat. D2650) at 400-fold the tested concentration and stored at -70 degrees C. Prior to their use, the stock solutions were diluted in fresh medium and the final DMSO concentration in the assay was 0.25% (v/v). All drugs and investigational agents were tested over a range starting from a high concentration at or near the clinical Cmax and decreasing in half-log increments. If the clinical Cmax for an agent had not been determined, the highest concentration tested was 10 microM.
Cell Lines. The patient-derived cancer cell (PDC) lines: 156681-154-R-J1-PDC, 283228-195-R-J1-PDC, 287954-098-R-J1-PDC, 292921-168-R-J2-PDC, 349418-098-R-PDC, 425362-245-T-J1-PDC, 556581-035-R-J1-PDC, and BL0293-F563-PDC were received from the NCI Patient-Derived Models Repository (PDMR, https://pdmr.cancer.gov). The established cell lines HS-SY-2 (RRID:CVCL_8719), MPNST, and SYO-1 (RRID:CVCL_7146) were obtained from the Sloan Kettering Institute. The alveolar soft parts sarcoma cell line ASPS-1 (RRID:CVCL_S738) was established at the NCI and grown from internal seed stocks. The following established cell lines were purchased from the American Type Culture Collection (ATCC, Manassas, VA): G-401 (ATCC, cat. CRL-1441, RRID:CVCL_0270), SW982 (ATCC, cat. HTB-93, RRID:CVCL_1734), VA-ES-BJ (ATCC, cat. CRL-2138, RRID:CVCL_1785), NCI-H719 (ATCC, cat. CRL-5837, RRID:CVCL_1582), NCI-H196 (ATCC, cat. CRL-5823, RRID:CVCL_1509), NCI-H841 (ATCC, cat. CRL-5845, RRID:CVCL_1595), NCI-H1618 (ATCC, cat. CRL-5879, RRID:CVCL_1480), NCI-H1876 (ATCC, cat. CRL-5902, RRID:CVCL_1503), DMS 114 (ATCC, cat. CRL-2066; RRID:CVCL_1174), NCI-H211 (ATCC, cat. CRL-5824; RRID:CVCL_1529), and SW 1271 (ATCC, cat. CRL-2177, RRID:CVCL_1716). The small cell lung cancer cell line COR-L88 was purchased from Sigma-Aldrich (cat. 92031917-1VL, RRID:CVCL_1141). The non-small cell lung cancer cell lines NCI-H226 (RRID:CVCL_1544) and NCI-H322M (RRID:CVCL_1557) were established at the NCI and grown from internal seed stocks. Pooled donor human umbilical vein endothelial cells (HUVEC, Lonza, cat. CC-2519) and human mesenchymal stem cells (hMSC, Lonza, cat. PT-2501) were purchased from Lonza (Walkersville, MD).
Cell Culture. All cells were maintained in an incubator at 37 degrees C and 5% CO2 with 95% humidity. […]
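Further: spheroids exposed to compound for 7 days before viability readout.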
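Wherever viability, T/C is given: luminescent signal taken as surrogate of viable cell content; 100% = DMSO vehicle control viability and lower means growth inhibition.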

Cn1ncnc1[C@H]1c2n[nH]c(=O)c3cc(F)cc(c23)N[C@@H]1c1ccc(F)cc1 + Cn1nnc2c(C(N)=O)ncn2c1=O
IC50 (second compound 1 µM): 544 nM | IC50 (second compound 3.16 µM): 543 nM | IC50 (second compound 10 µM): 506 nM | IC50 (second compound 31.6 µM): 57 nM | IC50 (second compound 100 µM): < 9.49 nM | viability, T/C (second compound 1 µM, first compound 0.00949 µM): 111% | viability, T/C (second compound 1 µM, first compound 0.03 µM): 106% | viability, T/C (second compound 1 µM, first compound 0.0949 µM): 104% | viability, T/C (second compound 1 µM, first compound 0.3 µM): 94.7% | viability, T/C (second compound 1 µM, first compound 0.949 µM): 8.18% | viability, T/C (second compound 1 µM, first compound 3 µM): 2.42% | viability, T/C (second compound 3.16 µM, first compound 0.00949 µM): 112% | viability, T/C (second compound 3.16 µM, first compound 0.03 µM): 106% | viability, T/C (second compound 3.16 µM, first compound 0.0949 µM): 106% | viability, T/C (second compound 3.16 µM, first compound 0.3 µM): 99.2% | viability, T/C (second compound 3.16 µM, first compound 0.949 µM): 3.64% | viability, T/C (second compound 3.16 µM, first compound 3 µM): 2.29% | viability, T/C (second compound 10 µM, first compound 0.00949 µM): 102% | viability, T/C (second compound 10 µM, first compound 0.03 µM): 106% | viability, T/C (second compound 10 µM, first compound 0.0949 µM): 104% | viability, T/C (second compound 10 µM, first compound 0.3 µM): 89.2% | viability, T/C (second compound 10 µM, first compound 0.949 µM): 2.82% | viability, T/C (second compound 10 µM, first compound 3 µM): 2.58% | viability, T/C (second compound 31.6 µM, first compound 0.00949 µM): 104% | viability, T/C (second compound 31.6 µM, first compound 0.03 µM): 90.6% | viability, T/C (second compound 31.6 µM, first compound 0.0949 µM): 17.9% | viability, T/C (second compound 31.6 µM, first compound 0.3 µM): 2.5% | viability, T/C (second compound 31.6 µM, first compound 0.949 µM): 2.34% | viability, T/C (second compound 31.6 µM, first compound 3 µM): 2.04% | viability, T/C (second compound 100 µM, first compound 0.00949 µM): 3.4% | viability, T/C (second compound 100 µM, first compound 0.03 µM): 2.77% | viability, T/C (second compound 100 µM, first compound 0.0949 µM): 2.49% | viability, T/C (second compound 100 µM, first compound 0.3 µM): 2.57% | viability, T/C (second compound 100 µM, first compound 0.949 µM): 2.68% | viability, T/C (second compound 100 µM, first compound 3 µM): 2.3%

COc1ccc([C@@H](O)c2cc(-c3ncnc4cc(N5CCOCC5)ccc34)c(F)cc2Cl)nn1 + COc1cc2c(cc1O)CCNC21CSC2c3c(OC(C)=O)c(C)c4c(c3C(COC1=O)N1C(O)C3Cc5cc(C)c(OC)c(O)c5C(C21)N3C)OCO4
IC50 (second compound 30 pM): > 10000 nM | IC50 (second compound 94.9 pM): > 10000 nM | IC50 (second compound 0.0003 µM): 587 nM | IC50 (second compound 0.000949 µM): < 31.6 nM | IC50 (second compound 0.003 µM): < 31.6 nM | viability, T/C (second compound 30 pM, first compound 0.0316 µM): 101% | viability, T/C (second compound 30 pM, first compound 0.1 µM): 99.2% | viability, T/C (second compound 30 pM, first compound 0.316 µM): 100% | viability, T/C (second compound 30 pM, first compound 1 µM): 109% | viability, T/C (second compound 30 pM, first compound 3.16 µM): 104% | viability, T/C (second compound 30 pM, first compound 10 µM): 94.3% | viability, T/C (second compound 94.9 pM, first compound 0.0316 µM): 109% | viability, T/C (second compound 94.9 pM, first compound 0.1 µM): 112% | viability, T/C (second compound 94.9 pM, first compound 0.316 µM): 108% | viability, T/C (second compound 94.9 pM, first compound 1 µM): 109% | viability, T/C (second compound 94.9 pM, first compound 3.16 µM): 108% | viability, T/C (second compound 94.9 pM, first compound 10 µM): 72.8% | viability, T/C (second compound 0.0003 µM, first compound 0.0316 µM): 109% | viability, T/C (second compound 0.0003 µM, first compound 0.1 µM): 109% | viability, T/C (second compound 0.0003 µM, first compound 0.316 µM): 103% | viability, T/C (second compound 0.0003 µM, first compound 1 µM): 4.2% | viability, T/C (second compound 0.0003 µM, first compound 3.16 µM): 0.48% | viability, T/C (second compound 0.0003 µM, first compound 10 µM): 1.07% | viability, T/C (second compound 0.000949 µM, first compound 0.0316 µM): 0.54% | viability, T/C (second compound 0.000949 µM, first compound 0.1 µM): 0.53% | viability, T/C (second compound 0.000949 µM, first compound 0.316 µM): 0.35% | viability, T/C (second compound 0.000949 µM, first compound 1 µM): 0.22% | viability, T/C (second compound 0.000949 µM, first compound 3.16 µM): 0.12% | viability, T/C (second compound 0.000949 µM, first compound 10 µM): 0.32% | viability, T/C (second compound 0.003 µM, first compound 0.0316 µM): 0.43% | viability, T/C (second compound 0.003 µM, first compound 0.1 µM): 0.47% | viability, T/C (second compound 0.003 µM, first compound 0.316 µM): 0.36% | viability, T/C (second compound 0.003 µM, first compound 1 µM): 0.33% | viability, T/C (second compound 0.003 µM, first compound 3.16 µM): 0.32% | viability, T/C (second compound 0.003 µM, first compound 10 µM): 0.48%
